{"source": "patent US20120225123A1", "about": "“Use of Synergistic Combinations of an Avermectin and an Antineoplastic Compounds for the Treatment of Hematological Malignancies” (UNIVERSITY HEALTH NETWORK, priority 2009, published 2012)", "key": {"OCI-AML2 cells [1]": {"system": "OCI-AML2 cells", "test": "Cell death, viability and cell cycle in OCI-AML2 cells", "assay_type": "cell-based, human", "settings": "for effect of calcium chelation on IVM-induced cell death: chelation of intra and extracellular calcium", "method": "Cell growth and viability was assessed by the MTS assay (Promega, Madison, Wis.) according to the manufacturer's instructions and as previously described.^12 Cell death was measured by Annexin V-fluoroscein isothiocyanate (FITC) and Propidium Iodide (PI; Biovision Research Products, Mountain View, Calif.) staining and flow cytometry according to the manufacturer's instructions and as previously described.^13 To identify CD34+ cells, a normal PBSC sample was co-stained with PE-anti-CD34+ (Beckman Coulter, Marseille France), and APC-anti-CD45 (Becton Dickenson, San Jose Calif.).\nCell cycle analysis was performed as described previously.^15 Briefly, cells were harvested, washed with cold PBS, and resuspended in 80% cold ethanol. Cells were then treated with 100 ng/mL DNase-free RNase A (Invitrogen) at 37° C. for 30 min, washed with cold PBS, and resuspended in PBS with 50 μg/mL propidium iodide. DNA content was analyzed by flow cytometry (FACSCalibur; Becton Dickinson). The percentage of cells in each phase of the cell cycle was calculated with FlowJo version 8.8 (TreeStar, Ashland, Oreg.)."}, "OCI-AML2 cells [2]": {"system": "OCI-AML2 cells", "test": "Reactive oxygen species, Carboxy-H2DCFDA staining, OCI-AML2", "assay_type": "cell-based, human", "settings": "increasing concentrations, flow cytometry", "method": "Data were analyzed with FlowJo version 8.8 (TreeStar, Ashland, Oreg.)."}, "leukemia cells": {"system": "leukemia cells", "test": "Combination of IVM with albendazole, combination index", "assay_type": "cell-based"}, "[3]": {"system": "STAT1 and target genes IFIT3, OAS1 and TRIM22 in OCI-AML2 cells", "test": "Gene expression by Q-RT-PCR, OCI-AML2", "assay_type": "cell-based, human", "settings": "pre-treatment with NAC", "method": "Leukemia cells were treated with buffer control or ivermectin (3 μM) for 30 and 40 hours. After treatment, cells were harvested, total RNA was isolated. Total RNA (10 μg) was used for cRNA amplification using the Invitrogen SuperScript kit (Life Technologies, Inc., Burlington, ON, Canada). Amplification and biotin labeling of antisense cRNA was performed using the Enzo® BioArray™ High Yield™ RNA transcript labeling kit (Enzo Diagnostics, Farmingdale, N.Y., USA), according to the manufacturer's instructions. RNA was then hybridized to Affymetrix HG U133 Plus 2.0 gene expression oligonucleotide arrays (Affymetrix, Santa Clara, Calif., USA). Microarray slides were scanned using the GeneArray 2500 scanner (Agilent Technologies). Microarray data were analyzed using GeneSpring GX v10.0 (Agilent), and lists of genes deregulated>2-fold after 30 and 40 hr ivermectin treatment were derived. Pathways and gene ontology analyses were carried out using Ingenuity Pathways Analysis (www.ingenuity.com); and the Database for Annotation, Visualization and Integrated Discovery (DAVID; http://david.abcc.ncifcrf.gov). […]\nGene expression changes were evaluated in OCI AML2, 0937, HL60, DU145 and PPC-1 cells by real-time Q-RT-PCRas described previously^15, 47. The expression level of STAT1A, STAT1B, TRIM22, OAS1 and IFIT3 before and after incubation of leukemia cells with ivermectin was evaluated."}}, "note": "Peptide text beside a SMILES is read from it. * marks the point of attachment. Cbz = O=C(OCc1ccccc1)*; CH2F = FC*", "data": [{"compound": "COC(=O)C[C@H](NC(=O)[C@H](C)NC(=O)[C@@H](NC(=O)OCc1ccccc1)C(C)C)C(=O)CF", "note": "[z-VAD-fmk] (Cbz-Val-Ala-Asp(OMe)-CH2F)", "values": [{"measurement": "effect of pan-caspase inhibitor co-treatment on ivermectin-induced cell death", "setting": "OCI-AML2 cells [1]; co-treatment with ivermectin, 24 hours, Annexin V-PI", "result": "abrogated cell death"}]}, {"compound": "Nc1ccn([C@@H]2O[C@H](CO)[C@@H](O)[C@@H]2O)c(=O)n1", "note": "[cytarabine]", "values": [{"measurement": "ROS production", "setting": "OCI-AML2 cells [2]", "result": "increase ROS production"}]}, {"compound": "O=C(O)CN(CCN(CC(=O)O)CC(=O)O)CC(=O)O", "note": "[EDTA]", "values": [{"measurement": "effect of calcium chelation on IVM-induced cell death", "setting": "OCI-AML2 cells [1]", "result": "did not inhibit IVM-induced cell death"}]}, {"compound": "CCCSc1ccc2nc(NC(=O)OC)[nH]c2c1", "note": "[albendazole]", "values": [{"measurement": "CI value at the ED25", "setting": "leukemia cells", "result": 1.59}, {"measurement": "CI value at the ED75", "setting": "leukemia cells", "result": 0.89}, {"measurement": "drug interaction with IVM", "setting": "leukemia cells", "result": "antagonized the anti-leukemic effects of IVM"}]}, {"compound": "CC(=O)N[C@@H](CS)C(=O)O", "note": "[NAC, N-acetyl-L-Cysteine]", "values": [{"measurement": "effect of free radical scavenger on IVM-induced cell death", "setting": "OCI-AML2 cells [1]; treated with IVM along with NAC", "result": "abrogated IVM-induced cell death"}, {"measurement": "effect of NAC pre-treatment on ivermectin upregulation of STAT1 genes", "setting": "[3]", "result": "blocked their upregulation"}]}, {"compound": "CC(=O)OCOC(=O)CN(CC(=O)OCOC(C)=O)c1ccccc1OCCOc1ccccc1N(CC(=O)OCOC(C)=O)CC(=O)OCOC(C)=O", "note": "[BAPTA-AM]", "values": [{"measurement": "effect of calcium chelation on IVM-induced cell death", "setting": "OCI-AML2 cells [1]", "result": "did not inhibit IVM-induced cell death"}]}, {"compound": "COc1cccc2c1C(=O)c1c(O)c3c(c(O)c1C2=O)C[C@@](O)(C(C)=O)C[C@@H]3O[C@H]1C[C@H](N)[C@H](O)[C@H](C)O1", "note": "[daunorubicin]", "values": [{"measurement": "ROS production", "setting": "OCI-AML2 cells [2]", "result": "increase ROS production"}]}]}
